Experimental data from patent US7566733B2, “Benzimidazole derivatives useful as selective androgen receptor modulators (sarms)” (priority 2004, dated 2009).

How the values were obtained:
[1] = test system: castrated male Sprague Dawley rats; experiment: Ventral Prostate and Levator Ani Weight In Vivo Assay; parameters: key: active: greater than or equal to 25% stimulation of levator ani at 30 mg/kg; settings: mature castrated rats, once daily for 14 days, oral gavage, 30 mg/kg
Description: Ventral Prostate and Levator Ani Weight In Vivo Assay
Mature (150 to 200 g) castrated male Sprague Dawley rats (Charles River) were treated once daily for 14 days with test compound (usually administered by oral gavage at up to the desired dosage, up to 30 mg/kg in a volume of 1 mL, in 30% cyclodextrin or 0.5% methylcellulose vehicle), or with testosterone propionate (administered subcutaneously by injection at the nape of the neck at 5 mg/kg, in a volume of 0.1 mL in sesame oil), or with vehicle (1 mL of 30% cyclodextrin or 0.5% methylcellulose, given orally). On the fifteenth day, the rats were euthanized by asphyxiation in carbon dioxide. Ventral prostates and levator ani muscles were removed and their wet weights determined.
Test compound activity was determined as the percent stimulation of tissue weight, with the vehicle-treated control group set to zero percent and the testosterone alone-treated control group set to 100%. A compound was designated as “active” if it produced greater than or equal to 25% stimulation of levator ani at 30 mg/kg.

[2] = test system: castrated male Sprague Dawley rats; experiment: Ventral Prostate and Seminal Vesicle Weight In Vivo Assay; settings: inhibition of testosterone-enhanced prostate weight; immature castrated rats, once daily for five days, usually orally 40 mg/kg, with testosterone propionate 2 mg/kg s.c. Further: key: active: the non weight adjusted prostate weight was ≦40 mg or the % Inhibition prostate weight, body weight adjusted was ≧40%@2 mg/day dosage; inactive: did not meet the specified criteria defined above.
Description: Ventral Prostate and Seminal Vesicle Weight In Vivo Assay
Immature (approximately 50 g) castrated male Sprague Dawley rats (Charles River) were treated once daily for five days with test compound (usually given orally at 40 mg/kg in a volume of 0.3 mL, in 30% cyclodextrin or 0.5% methylcellulose vehicle) and with testosterone propionate (given subcutaneously by injection at the nape of the neck at 2 mg/kg, in a volume of 0.1 mL in sesame oil). On the sixth day, the rats were euthanized by asphyxiation in carbon dioxide. Ventral prosatates and seminal vesicles were removed and their wet weights determined. Test compound activity was determined as the percent inhibition of testosterone-enhanced tissue weights, with a vehicle-treated control group set to zero percent and a testosterone alone-treated control group set to 100%.
Representative compounds of the present invention were tested according to the procedure described, with results as listed in Table 7 below. A test compound is listed as “active” if the non weight adjusted prostate weight was ≦40 mg or the % Inhibition prostate weight, body weight adjusted was ≧40%@2 mg/day dosage. ID50's, if determined, of ≦15 mg/day also indicated an “active” compound.

Structure (SMILES) | Activity (percent stimulation of levator ani weight) [1] | Activity [2]
CC(O)(CC#N)c1nc2cc(Cl)c(Cl)cc2[nH]1 (stereo not drawn) [Compound 7, 3-(5,6-dichloro-1H-benzoimidazol-2-yl)-3-hydroxy-butyronitrile] | active | active
FC(F)(F)Cc1nc2cc(Cl)c(Cl)cc2n1CCOc1ccc(Cl)cc1 [Compound 124, 5,6-Dichloro-1-[2-(4-chloro-phenoxy)-ethyl]-2-(2,2,2-trifluoro-ethyl)-1H-benzoimidazole] | – | active
FC(F)(F)Cc1nc2cc(Cl)c(Cl)cc2n1Cc1ccccc1Cl [Compound 125, 5,6-Dichloro-1-(2-chloro-benzyl)-2-(2,2,2-trifluoro-ethyl)-1H-benzoimidazole] | – | active
Cc1onc(-c2ccccc2)c1C(=O)Cn1c(CC(F)(F)F)nc2cc(Cl)c(Cl)cc21 [Compound 126, 2-[5,6-Dichloro-2-(2,2,2-trifluoro-ethyl)-benzoimidazol-1-yl]-1-(5-methyl-3-phenyl-isoxazol-4-yl)-ethanone] | – | inactive
Cc1cc2[nH]c(C(O)C(F)(F)F)nc2cc1Cl (stereo not drawn) [Compound 128, 1-(5-Chloro-6-methyl-1H-benzoimidazol-2-yl-)2,2,2-trifluoro-ethanol] | – | inactive
COc1cccc(Cn2c(CC(F)(F)F)nc3cc(Cl)c(Cl)cc32)c1 [Compound 129, 5,6-Dichloro-1-(3-methoxy-benzyl)-2-(2,2,2-trifluoro-ethyl)-1H-benzoimidazole] | – | inactive
FC(F)(F)Cc1nc2cc(Cl)c(Cl)cc2n1Cc1ccc(-n2cccn2)cc1 [Compound 131, 5,6-Dichloro-1-(4-pyrazol-1-yl-benzyl)-2-(2,2,2-trifluoro-ethyl)-1H-benzoimidazole] | – | inactive
FC(F)(F)Cc1nc2cc(Cl)c(Cl)cc2n1Cc1ccc(-c2csnn2)cc1 [Compound 132, 5,6-Dichloro-1-(4-[1,2,3]thiadiazol-4-yl-benzyl)-2-(2,2,2-trifluoro-ethyl)-1H-benzoimidazole] | – | inactive
Cc1oncc1Cn1c(CC(F)(F)F)nc2cc(Cl)c(Cl)cc21 [Compound 133, 5,6-Dichloro-1-(5-methyl-isoxazol-4-ylmethyl)-2-(2,2,2-trifluoro-ethyl)-1H-benzoimidazole] | – | active
FC(F)(F)Cc1nc2cc(Cl)c(Cl)cc2n1Cc1cccc(OC(F)(F)F)c1 [Compound 134, 5,6-Dichloro-2-(2,2,2-trifluoro-ethyl)-1-(3-trifluoromethoxy-benzyl)-1H-benzoimidazole] | – | inactive
N#Cc1cc2nc(C(O)C(F)(F)F)[nH]c2cc1C(F)(F)F (stereo not drawn) [Compound 135, 2-(2,2,2-Trifluoro-1-hydroxy-ethyl)-6-trifluoromethyl-1H-benzoimdazole-5-carbonitrile] | – | inactive
N#Cc1ccc(OCCn2c(CC(F)(F)F)nc3cc(Cl)c(Cl)cc32)cc1 [Compound 136, 4-{2-[5,6-Dichloro-2-(2,2,2-trifluoro-ethyl)-benzoimidazol-1-yl]-ethoxy}-benzonitrile] | – | active
O=[N+]([O-])c1ccccc1Cn1c(CC(F)(F)F)nc2cc(Cl)c(Cl)cc21 [Compound 137, 5,6-Dichloro-1-(2-nitro-benzyl)-2-(2,2,2-trifluoro-ethyl)-1H-benzoimidazole] | – | active
FC(F)(F)Cc1nc2cc(Cl)c(Cl)cc2n1Cc1ccc(-n2cccc2)cc1 [Compound 138, 5,6-Dichloro-1-(4-pyrrol-1-yl-benzyl)-2-(2,2,2-trifluoro-ethyl)-1H-benzoimidazole] | – | active
O=[N+]([O-])c1cccc(Cn2c(CC(F)(F)F)nc3cc(Cl)c(Cl)cc32)c1 [Compound 139, 5,6-Dichloro-1-(3-nitro-benzyl)-2-(2,2,2-trifluoro-ethyl)-1H-benzoimidazole] | – | active
FC(F)(F)Cc1nc2cc(Cl)c(Cl)cc2n1Cc1ccc(SC(F)(F)F)cc1 [Compound 140, 5,6-Dichloro-2-(2,2,2-trifluoro-ethyl)-1-(4-trifluoromethvlsulfanvl-benzvl)-1H-benzoimidazole] | – | inactive

Structure (SMILES) | Activity (percent stimulation of levator ani weight) [1] | Activity [2]
CS(=O)(=O)c1ccc(Cn2c(CC(F)(F)F)nc3cc(Cl)c(Cl)cc32)cc1 [Compound 142, 5,6-Dichloro-1-(4-methanesulfonyl-benzyl)-2-(2,2,2-trifluoro-ethyl)-1H-benzoimidazole] | – | inactive
CC/C(Cn1c(CC(F)(F)F)nc2cc(Cl)c(Cl)cc21)=N/O [Compound 144, 1-[5,6-Dichloro-2-(2,2,2-trifluoro-ethyl)-benzoimidazol-1-yl]-butan-2-one Oxime] | – | active
FC(F)(F)Cc1nc2cc(Cl)c(Cl)cc2n1Cc1ccc(OCc2ccccc2)cc1 [Compound 146, 1-(4-Benzyloxy-benzyl)-5,6-dichloro-2-(2,2,2-trifluoro-ethyl)-1H-benzoimidazole] | – | active
COc1ccc(Cn2c(CC(F)(F)F)nc3cc(Cl)c(Cl)cc32)cc1 [Compound 147, 5,6-Dichloro-1-(4-methoxy-benzyl)-2-(2,2,2-trifluoro-ethyl)-1H-benzoimidazole] | – | active
CCC(O)Cn1c(CC(F)(F)F)nc2cc(Cl)c(Cl)cc21 (stereo not drawn) [Compound 148, 1-[5,6-Dichloro-2-(2,2,2-trifluoro-ethyl)-benzoimidazol-1-yl]-butan-2-ol] | – | active
FC(F)(F)Cc1nc2cc(Cl)c(Cl)cc2n1Cc1ccc(Br)cc1 [Compound 149, 1-(4-Bromo-benzyl)-5,6-dichloro-2-(2,2,2-trifluoro-ethyl)-1H-benzoimidazole] | – | active
CCOC(=O)c1ccc(Cn2c(CC(F)(F)F)nc3cc(Cl)c(Cl)cc32)cc1 [Compound 150, 4-[5,6-Dichloro-2-(2,2,2-trifluoro-ethyl)-benzoimidazol-1-ylmethyl]-benzoic Acid Ethyl Ester] | – | active
FC(F)(F)Cc1nc2cc(Cl)c(Cl)cc2n1Cc1ccccc1Br [Compound 151, 1-(2-Bromo-benzyl)-5,6-dichloro-2-(2,2,2-trifluoro-ethyl)-1H-benzoimidazole] | – | active
FC(c1nc2cc(Cl)c(Cl)cc2[nH]1)C(F)(F)F (stereo not drawn) [Compound 152, 5,6-Dichloro-2-(1,2,22-tetrafluoro-ethyl)-1H-benzoimidazole] | – | active
O=Cc1ccc(Cn2c(CC(F)(F)F)nc3cc(Cl)c(Cl)cc32)cc1 [Compound 153, 4-[5,6-Dichloro-2-(trifluoro-ethyl)-benzoimidazol-1-ylmethyl]-benzaldehyde] | – | inactive
FC(F)(F)C(F)(F)c1nc2cc(Cl)c(Cl)cc2[nH]1 [Compound 154, 5,6-Dichloro-2-(pentafluoroethyl)-1H-benzoimidazole] | – | inactive
O=[N+]([O-])c1cc2nc(C(O)C(F)(F)F)[nH]c2cc1[N+](=O)[O-] (stereo not drawn) [Compound 155, 1-(5,6-Dinitro-1H-benzoimidazol-2-yl-)2,2,2-trifluoro-ethanol] | – | inactive
OC(c1nc2cc(Cl)ccc2[nH]1)C(F)(F)F (stereo not drawn) [Compound 156, 1-(5-1H-benzoimidazol-2-yl-)2,2,2-trifluoro-ethanol] | – | inactive
COc1cc2nc(C(O)C(F)(F)F)[nH]c2cc1OC (stereo not drawn) [Compound 157, 1-(5,6-Dimethoxy-1H-benzoimidazol-2-yl-)2,2,2-trifluoro-ethanol] | – | inactive
O=C(c1nc2cc(Cl)c(F)cc2[nH]1)C(F)(F)F [Compound 159, 1-(5-Chloro-6-fluoro-1H-benzoimidazol-2-yl-)2,2,2-trifluoro-ethanone] | – | active
Cc1cc2[nH]c(C(=O)C(F)(F)F)nc2cc1Cl [Compound 160, 1-(5-Chloro-6-methyl-1H-benzoimidazol-2-yl-)2,2,2-trifluoro-ethanone] | – | active
